Results taken from ChEMBL document CHEMBL1151264, “Investigation of brominated tryptophan alkaloids from two thorectidae sponges: Thorectandra and Smenospongia” (2005).
≈ marks a conversion by molar mass, not a printed value.

Test system: Staphylococcus epidermidis
Assay: Antibacterial activity against Staphylococcus epidermidis ATCC 12228
Type: functional

Structure (SMILES)	MIC
C[N+](C)(C)[C@@H](Cc1c[nH]c2ccc(Br)cc12)C(=O)O	100 µg/mL
CCOC1(Cc2c[nH]c3cc(Br)ccc23)C(=O)N(C)C(=N)N1C (stereo not given)	12.5 µg/mL (≈ 33 µM)
CN1C(=N)N(C)/C(=C/c2c[nH]c3ccccc23)C1=O [APLYSINOPSIN]	25 µg/mL (≈ 98.3 µM)
COC1(Cc2c[nH]c3cc(Br)ccc23)C(=O)N(C)C(=N)N1C (stereo not given)	100 µg/mL (≈ 274 µM)
CN(C)[C@@H](Cc1c[nH]c2ccc(Br)cc12)C(=O)O	25 µg/mL (≈ 80.3 µM)
CN1C(=N)N(C)C(O)(Cc2c[nH]c3cc(Br)ccc23)C1=O (stereo not given)	12.5 µg/mL (≈ 35.6 µM)
COC(=O)Cc1c[nH]c2cc(Br)ccc12	6.25 µg/mL (≈ 23.3 µM)
COC(=O)c1c[nH]c2cc(Br)ccc12	50 µg/mL (≈ 197 µM)
CN[C@H](CC(C)C)C(=O)N[C@H]1C(=O)N[C@@H](CC(N)=O)C(=O)N[C@H]2C(=O)N[C@H]3C(=O)N[C@H](C(=O)N[C@H](C(=O)O)c4cc(O)cc(O)c4-c4cc3ccc4O)[C@H](O)c3ccc(c(Cl)c3)Oc3cc2cc(c3O[C@@H]2O[C@H](CO)[C@@H](O)[C@H](O)[C@H]2O[C@H]2C[C@](C)(N)[C@H](O)[C@H](C)O2)Oc2ccc(cc2Cl)[C@H]1O [VANCOMYCIN]	0.625 µg/mL (≈ 0.431 µM)
CN1C(=N)N(C)C(Cc2c[nH]c3cc(Br)ccc23)C1=O (stereo not given)	25 µg/mL (≈ 74.6 µM)
